SMILES strings stand for the structures.

The target of the assay is T1, histamine H4 receptor (Homo sapiens, UniProt Q9H3N8).
T1 construct: expressed in transfected cells; host or cells: HEK293SFM cells (membrane preparation)
T1 sequence (Q9H3N8 whole entry): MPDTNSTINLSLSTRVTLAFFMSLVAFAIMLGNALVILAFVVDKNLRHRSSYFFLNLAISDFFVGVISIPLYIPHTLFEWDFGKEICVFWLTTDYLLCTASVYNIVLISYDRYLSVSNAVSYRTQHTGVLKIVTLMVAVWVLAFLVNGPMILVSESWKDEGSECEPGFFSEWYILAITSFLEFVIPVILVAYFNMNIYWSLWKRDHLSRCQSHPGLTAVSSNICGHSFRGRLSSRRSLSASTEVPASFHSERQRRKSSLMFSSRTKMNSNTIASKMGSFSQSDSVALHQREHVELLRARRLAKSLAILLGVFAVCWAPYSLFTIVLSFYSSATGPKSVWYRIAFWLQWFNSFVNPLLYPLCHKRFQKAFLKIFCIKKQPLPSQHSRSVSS
As to the kind of experiment: H4 Membrane Binding Assay (3H-Histamine displacement). As to conditions: membranes of recombinant HEK293SFM cells, 10 nM 3H-Histamine, 1.5 hr at room temperature. The essentials: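 Radioligand is [3H]-histamine; 1000× unlabeled ligand sets nonspecific binding. Receptor source: membrane pellets from HEK293SFM cells carrying human H4 or other histamine subtypes (human H1–H3, mouse H4), in 50 mM Tris-HCl pH 7.5. Filtration through PEI-treated GF/B filters, then scintillation counting.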
In the case of `CN1CCN(c2cc(-c3ccc4c(c3)CN(C(=O)OC3CCN(S(=O)(=O)C5CCCC5)CC3)CC4)nc(N)n2)CC1` [Example 89, 1-(Cyclopentylsulfonyl)piperidin-4-yl 7-[2-amino-6-(4-methylpiperazin-1-yl)pyrimidin-4-yl]-3,4-dihydroisoquinoline-2(1H)-carboxylate], the IC50 – broadly, the concentration at which inhibition is half-maximal – is 77 nM.

For the compound `CN1CCN(c2cc(-c3ccc4c(c3)CN(C(=O)Nc3nc5ccccc5s3)CC4)nc(N)n2)CC1` [Example 90, 7-[2-Amino-6-(4-methylpiperazin-1-yl)pyrimidin-4-yl]-N-1,3-benzothiazol-2-yl-3,4-dihydroisoquinoline-2(1H)-carboxamide], the IC50 stood at 143 nM.

`CN1CCN(c2cc(-c3ccc4c(c3)CN(C(=O)Nc3ccc(-c5ccccc5)cn3)CC4)nc(N)n2)CC1` [Example 91, 7-[2-Amino-6-(4-methylpiperazin-1-yl)pyrimidin-4-yl]-N-(5-phenylpyridin-2-yl)-3,4-dihydroisoquinoline-2(1H)-carboxamide]: the IC50 was found to be 63 nM. As for `CC(C)Oc1ccc(NC(=O)N2CCc3ccc(-c4cc(N5CCN(C)CC5)nc(N)n4)cc3C2)cc1` [Example 92, 7-[2-Amino-6-(4-methylpiperazin-1-yl)pyrimidin-4-yl]-N-(4-isopropoxyphenyl)-3,4-dihydroisoquinoline-2(1H)-carboxamide], the IC50 was 50 nM. Then `CN1CCN(c2cc(-c3ccc4c(c3)CN(C(=O)Nc3ccc(-n5cccn5)cc3)CC4)nc(N)n2)CC1` [Example 93, 7-[2-Amino-6-(4-methylpiperazin-1-yl)pyrimidin-4-yl]-N-[4-(1H-pyrazol-1-yl)phenyl]-3,4-dihydroisoquinoline-2(1H)-carboxamide], with 43 nM; and `COCC1(NC(=O)N2CCc3ccc(-c4cc(N5CCN(C)CC5)nc(N)n4)cc3C2)CCCC1` [Example 94, 7-[2-Amino-6-(4-methylpiperazin-1-yl)pyrimidin-4-yl]-N-[1-(methoxymethyl)cyclopentyl]-3,4-dihydroisoquinoline-2(1H)-carboxamide], with 149 nM. On to `CN1CCN(c2cc(-c3ccc4c(c3)CN(C(=O)NC3CCCCC3)CC4)nc(N)n2)CC1` [Example 95, 7-[2-Amino-6-(4-methylpiperazin-1-yl)pyrimidin-4-yl]-N-cyclohexyl-3,4-dihydroisoquinoline-2(1H)-carboxamide], for which the half-maximal inhibitory concentration (IC50) was 24 nM. Turning to `CN1CCN(c2cc(-c3ccc4c(c3)CN(C(=O)Nc3ccc(Oc5ccccc5)cc3)CC4)nc(N)n2)CC1` [Example 96, 7-[2-Amino-6-(4-methylpiperazin-1-yl)pyrimidin-4-yl]-N-(4-phenoxyphenyl)-3,4-dihydroisoquinoline-2(1H)-carboxamide], the IC50 was found to be 52 nM. With `CC(C)[C@H](C)NC(=O)N1CCc2ccc(-c3cc(N4CCN(C)CC4)nc(N)n3)cc2C1` [Example 97, 7-[2-Amino-6-(4-methylpiperazin-1-yl)pyrimidin-4-yl]-N-[(1S)-1,2-dimethylpropyl]-3,4-dihydroisoquinoline-2(1H)-carboxamide] the figure was 73 nM; with `CC(C)[C@@H](C)NC(=O)N1CCc2ccc(-c3cc(N4CCN(C)CC4)nc(N)n3)cc2C1` [Example 98, 7-[2-Amino-6-(4-methylpiperazin-1-yl)pyrimidin-4-yl]-N-[(1R)-1,2-dimethylpropyl]-3,4-dihydroisoquinoline-2(1H)-carboxamide], 61 nM. Then `CN1CCN(c2cc(-c3ccc4c(c3)CN(C(=O)Nc3ccccc3F)CC4)nc(N)n2)CC1` [Example 99, 7-[2-Amino-6-(4-methylpiperazin-1-yl)pyrimidin-4-yl]-N-(2-fluorophenyl)-3,4-dihydroisoquinoline-2(1H)-carboxamide], with 31 nM; and `CC(C)CC(=O)N1CCc2ccc(-c3cc(N4CCN(C)CC4)nc(N)n3)cc2C1` [Example 100, 4-[2-(3-Methylbutanoyl)-1,2,3,4-tetrahydroisoquinolin-7-yl]-6-(4-methylpiperazin-1-yl)pyrimidin-2-amine], with 45 nM; and `CN1CCN(c2cc(-c3ccc4c(c3)CN(C(=O)CCc3ccccc3)CC4)nc(N)n2)CC1` [Example 101, 4-(4-Methylpiperazin-1-yl)-6-[2-(3-phenylpropanoyl)-1,2,3,4-tetrahydroisoquinolin-7-yl]pyrimidin-2-amine], with 99 nM.

Regarding `CC(C(=O)N1CCc2ccc(-c3cc(N4CCN(C)CC4)nc(N)n3)cc2C1)C1CCCCC1` (stereo not shown) [Example 102, 4-[2-(2-Cyclohexylpropanoyl)-1,2,3,4-tetrahydroisoquinolin-7-yl]-6-(4-methylpiperazin-1-yl)pyrimidin-2-amine], the IC50 stood at 83 nM. `CN1CCN(c2cc(-c3ccc4c(c3)CN(C(=O)N3CCC(c5ccccc5)CC3)CC4)nc(N)n2)CC1` [Example 103, 4-(4-Methylpiperazin-1-yl)-6-{2-[(4-phenylpiperidin-1-yl)carbonyl]-1,2,3,4-tetrahydroisoquinolin-7-yl}pyrimidin-2-amine]: the IC50 was 84 nM. With `CN1CCN(c2cc(-c3ccc4c(c3)CN(C(=O)N3CCC(F)(F)CC3)CC4)nc(N)n2)CC1` [Example 104, 4-{2-[(4,4-Difluoropiperidin-1-yl)carbonyl]-1,2,3,4-tetrahydroisoquinolin-7-yl}-6-(4-methylpiperazin-1-yl)pyrimidin-2-amine] the figure was 259 nM; with `CN1CCN(c2cc(-c3ccc4c(c3)CN(C(=O)C3CCCCC3)CC4)nc(N)n2)CC1` [Example 105, 4-[2-(Cyclohexylcarbonyl)-1,2,3,4-tetrahydroisoquinolin-7-yl]-6-(4-methylpiperazin-1-yl)pyrimidin-2-amine], 81 nM; with `CN1CCN(c2cc(-c3ccc4c(c3)CN(C(=O)CC3CC3)CC4)nc(N)n2)CC1` [Example 106, 4-[2-(Cyclopropylacetyl)-1,2,3,4-tetrahydroisoquinolin-7-yl]-6-(4-methylpiperazin-1-yl)pyrimidin-2-amine], 69 nM. With `CN1CCN(c2cc(-c3ccc4c(c3)CN(C(=O)Cc3ccc(C#N)cc3)CC4)nc(N)n2)CC1` [Example 107, 4-{2-[7-[2-Amino-6-(4-methylpiperazin-1-yl)pyrimidin-4-yl]-3,4-dihydroisoquinolin-2(1H)-yl]-2-oxoethyl}benzonitrile] the figure was 34 nM. `CN1CCN(c2cc(-c3ccc4c(c3)CN(C(=O)Cc3ccc(Cl)nc3)CC4)nc(N)n2)CC1` [Example 108, 4-{2-[(6-Chloropyridin-3-yl)acetyl]-1,2,3,4-tetrahydroisoquinolin-7-yl}-6-(4-methylpiperazin-1-yl)pyrimidin-2-amine]: the IC50 stood at 33 nM. With `CN1CCN(c2cc(-c3ccc4c(c3)CN(C(=O)CC3CCC3)CC4)nc(N)n2)CC1` [Example 109, 4-[2-(Cyclobutylacetyl)-1,2,3,4-tetrahydroisoquinolin-7-yl]-6-(4-methylpiperazin-1-yl)pyrimidin-2-amine] the figure was 9.6 nM. Consider `CN1CCN(c2cc(-c3ccc4c(c3)CN(C(=O)CC3CCOCC3)CC4)nc(N)n2)CC1` [Example 110, 4-(4-Methylpiperazin-1-yl)-6-[2-(tetrahydro-2H-pyran-4-ylacetyl)-1,2,3,4-tetrahydroisoquinolin-7-yl]pyrimidin-2-amine], for which the IC50 worked out at 86 nM.
